Assay [1] has as its system Trypanosoma brucei rhodesiense. The assay is described as follows: In vitro inhibitory activity against Trypanosoma brucei rhodesiense. The format is functional, organism-based.
Assay [2] concerns Mus musculus. Nature of the assay: Number of mice (out of 4) cured from Trypanosoma brucei rhodesiense infection which are parasite free for 60 days was determined at i.p. dose of 20 mg/kg. It is filed as functional. The following applies: route intraperitoneal.
The subject of the next assay is Nucleic Acid. Nature of the assay: In vitro binding affinity towards Poly (dA-dT)2. It is filed as nucleic-acid assay.
In assay [3] the test system is Mus musculus. Nature of the assay: In vivo average survival days of mice infected by Trypanosoma brucei rhodesiense was determined for a period of 60 days at i.p. dose of 20 mg/kg. The format is functional. To be noted: route intraperitoneal.
The test system of another assay is Plasmodium falciparum. Nature of the assay: In vitro inhibitory activity for Plasmodium falciparum. It is filed as functional, organism-based.
The subject of assay [4] is Mus musculus. Nature of the assay: In vivo average survival days of mice infected by Trypanosoma brucei rhodesiense was determined for a period of 60 days at p.o. dose of 75 mg/kg. It is filed as functional. The following applies: route oral.
For assay [5], the system named is Mus musculus. Nature of the assay: Number of mice (out of 4) cured from Trypanosoma brucei rhodesiense infection which are parasite free for 60 days was determined at p.o. dose of 75 mg/kg. It is filed as functional. To be noted: route oral.
Assay [6] has as its system Mus musculus. The assay is described as follows: Number of mice (out of 4) cured from Trypanosoma brucei rhodesiense infection which are parasite free for 60 days was determined at p.o. dose of 100 mg/kg. The format is functional. To be noted: route oral.
Assay [7] deals with Mus musculus. Nature of the assay: In vivo average survival days of mice infected by Trypanosoma brucei rhodesiense was determined for a period of 60 days at p.o. dose of 100 mg/kg. The format is functional. The following applies: route oral.
For assay [8], the system named is Mus musculus. The assay is described as follows: Number of mice (out of 4) cured from Trypanosoma brucei rhodesiense infection which are parasite free for 60 days was determined at p.o. dose of 50 mg/kg. It is filed as functional. To be noted: route oral.
The test system of assay [9] is Mus musculus. The assay is described as follows: In vivo average survival days of mice infected by Trypanosoma brucei rhodesiense was determined for a period of 60 days at p.o. dose of 50 mg/kg. It is filed as functional. The following applies: route oral.
Assay [10] relates to Mus musculus. Nature of the assay: In vivo average survival days of mice infected by Trypanosoma brucei rhodesiense was determined for a period of 60 days at i.p. dose of 10 mg/kg. It is filed as functional. To be noted: route intraperitoneal.
Assay [11] concerns Mus musculus. The assay is described as follows: Number of mice (out of 4) cured from Trypanosoma brucei rhodesiense infection which are parasite free for 60 days was determined at i.p. dose of 10 mg/kg. The format is functional. The following applies: route intraperitoneal.
The test system of assay [12] is Mus musculus. The assay is described as follows: In vivo average survival days of mice infected by Trypanosoma brucei rhodesiense was determined for a period of 60 days at i.p. dose of 5 mg/kg. The format is functional. The following applies: route intraperitoneal.
Assay [13] has as its system Mus musculus. Nature of the assay: Number of mice (out of 4) cured from Trypanosoma brucei rhodesiense infection which are parasite free for 60 days was determined at i.p. dose of 5 mg/kg. It is filed as functional. To be noted: route intraperitoneal.

As usually defined, the IC50 is the point on the concentration scale where inhibition reaches its midpoint. Read a high IC50 as weaker potency in that assay. For the compound `N=C(N)c1ccc(-c2ccc(-c3cn4cc(C(=N)N)ccc4n3)cc2)cc1`, the IC50 in assay [1] was 1 nM; in the assay with Plasmodium falciparum, 43 nM. Further, the No. of cures in the assay with Mus musculus [2] is reported as 4. For the same compound, the ΔTm in the assay with Nucleic Acid stood at 24.2. Also, the Survival with Mus musculus [3] is above 60 days.

Turning to `CONC(=N)c1ccc(-c2ccc(-c3cn4cc(C(=N)NOC)ccc4n3)cc2)cc1`, the IC50 in [1] stood at 5300 nM; in the assay with Plasmodium falciparum it was 395 nM. The Survival in the assay on Mus musculus [4] was 20 days. The No. of cures in the assay on Mus musculus [5] turned out to be 0. In the assay on Nucleic Acid, the ΔTm came out at 0.3.

The compound `N=C(NO)c1ccc(-c2ccc(-c3cn4cc(/C(N)=N/O)ccc4n3)cc2)cc1` displayed a Survival in the assay on Mus musculus [4] of 28 days. The same compound returned a No. of cures in the assay on Mus musculus [5] of 0. This compound registered an IC50 in the assay on Plasmodium falciparum of 521 nM.

`Cc1cc(C(=N)N)cn2cc(-c3cccc(-c4ccc(C(=N)N)cc4)c3)nc12`: the IC50 in [1] was 49 nM; with Plasmodium falciparum it was 86 nM. The No. of cures with Mus musculus [2] is 3. Further, in the assay on Nucleic Acid, the ΔTm was above 27. In the assay with Mus musculus [3], the Survival is above 50 days.

Turning to `CONC(=N)c1ccc(-c2ccc(-c3cn4cc(C(=N)NOC)ccc4n3)o2)cc1`, the IC50 in [1] stood at 3000 nM; with Plasmodium falciparum, 2800 nM. The No. of cures with Mus musculus [6] worked out at 2. Further, the Survival with Mus musculus [7] is above 39.5 days.

In turn, `N=C(NO)c1ccc(-c2ccc(-c3cn4cc(/C(N)=N/O)ccc4n3)o2)cc1` registered a No. of cures with Mus musculus [8] of 1. In addition, the IC50 in assay [1] came to 2200 nM; in the assay with Plasmodium falciparum, 1600 nM. Further, the Survival in the assay on Mus musculus [9] was above 19.5 days.

With `Cc1cc(C(=N)N)cn2cc(-c3ccc(-c4ccc(C(=N)N)cc4)o3)nc12`, the figures for the IC50 (in assay [1]; in the assay on Plasmodium falciparum) were 6 nM and 88 nM, respectively. Besides, in the assay on Mus musculus [2], the No. of cures amounted to 4. In the assay on Nucleic Acid, the ΔTm was above 27. This compound gave a Survival with Mus musculus [3] above 60 days.

On to `N=C(N)c1ccc(-c2cccc(-c3cn4cc(C(=N)N)ccc4n3)c2)cc1`, for which the IC50 is 22 nM in assay [1] and 107 nM in the assay with Plasmodium falciparum. Further, the No. of cures with Mus musculus [2] is listed as 4. The ΔTm with Nucleic Acid is above 27. This compound returned a Survival with Mus musculus [3] above 60 days.

As to `N=C(N)c1ccc(-c2ccc(-c3cn4cc(C(=N)N)ccc4n3)o2)cc1`, the IC50 was 63 nM in [1] and 14 nM with Plasmodium falciparum. The compound also had a No. of cures in the assay on Mus musculus [2] of 4. Moreover, in the assay on Nucleic Acid, the ΔTm came to 26.2. In addition, in the assay on Mus musculus [3], the Survival was above 60 days.

Regarding `N=C(N)c1ccc(-c2ccc(-c3cn4c(n3)CCC(C(=N)N)C4)cc2)cc1` (stereo not drawn), the IC50 in assay [1] worked out at 116 nM; in the assay on Plasmodium falciparum, 14 nM. Moreover, the Survival in the assay with Mus musculus [10] is above 51.5 days. The compound also came in with a No. of cures in the assay with Mus musculus [11] of 3. In the assay with Nucleic Acid, the ΔTm was 21.3.

With `CONC(=N)c1ccc(-c2ccc(-c3ccc(C(=N)NOC)cc3)o2)cc1` [PAFURAMIDINE], the figures for the IC50 (in [1]; in the assay with Plasmodium falciparum) were 4.5 nM and 15.5 nM, respectively. The compound further showed a No. of cures with Mus musculus [6] of 4. Besides, in the assay with Mus musculus [7], the Survival was above 60 days. Also, the ΔTm with Nucleic Acid was determined as 25.

`N=C(N)c1ccc(OCCCCCOc2ccc(C(=N)N)cc2)cc1` [PENTAMIDINE] returned a No. of cures in the assay on Mus musculus [2] of 0.

In the assay with Mus musculus [2], `N=C(N)c1ccc(-c2ccc(-c3ccc(C(=N)N)cc3)o2)cc1` [FURAMIDINE] came in with a No. of cures of 0.

As for `N=C(N)c1ccc(-c2ccc(-c3cn4c(n3)CCC(C(=N)N)C4)o2)cc1` (stereo not drawn), the IC50 in [1] turned out to be 52 nM; in the assay on Plasmodium falciparum it was 1200 nM. Also, the Survival with Mus musculus [12] is above 51 days; with Mus musculus [3], above 60 days. Besides, the No. of cures in the assay with Mus musculus [2] amounted to 4; in the assay with Mus musculus [13], 2. In addition, in the assay with Nucleic Acid, the ΔTm was 15.6.

`N=C(N)c1ccc(-c2cccc(-c3cn4c(n3)CCC(C(=N)N)C4)c2)cc1` (stereo not drawn): the IC50 in [1] was 226 nM; with Plasmodium falciparum, 86 nM. In the assay on Nucleic Acid, the ΔTm is 19.1.

The record behind these values is ChEMBL document CHEMBL1148357, “Novel dicationic imidazo[1,2-a]pyridines and 5,6,7,8-tetrahydro-imidazo[1,2-a]pyridines as antiprotozoal agents” (J Med Chem, 2004).
